Test results: patent publication US20070264355A1, “BINARY COMPOSITIONS AND METHODS FOR STERILIZATION” (Binary, LLC, priority 2005, published 2007)

How the values were obtained:
Bacillus subtilis spores = assay: Microbicidal activity of commonly used antiseptics against Bacillus subtilis spores; assay type: cell-based; settings: inoculum 1865000 CFU
Description: (§1) The performance of commonly used antiseptics was tested against Bacillus subtilis and Staphylococcus aureus, following the general procedure of Example 1, to assess the improvement provided by the binary system over these compounds.
After 60 minutes of exposure to the organisms, the individual antiseptics, indicated in Table 15 and Table 16, were neutralized using the corresponding neutralizing solutions prepared as listed below in Materials. Chlorhexidine and IPA were neutralized with 500 microliters of a solution containing 3% Saponin, 3% Tween-80, 0.3% lecithin, and 0.1% histidine. Povidone Iodine was neutralized with 500 microliters of thiosulfate solution (2.4%).

[1] = two percent, compared to 70% isopropyl alcohol and 10% povidone-iodine; cited from earlier work
Staphylococcus aureus = assay: Microbicidal activity of commonly used antiseptics against Staphylococcus aureus; assay type: cell-based; settings: inoculum 1475000 CFU
Description: as §1
[…] Chlorhexidine and IPA were neutralized with 500 microliters of a solution containing 3% Saponin, 3% Tween-80, 0.3% lecithin, and 0.1% histidine. Povidone Iodine was neutralized with 500 microliters of thiosulfate solution (2.4%).

[H]/N=C(\N/C(=N/[H])NCCCCCCNC(=N)NC(=N)Nc1ccc(Cl)cc1)Nc1ccc(Cl)cc1 [Chlorhexidine, Chlorhexidine Gluconate]
Log 10 (CFU + 1) Survivors (Bacillus subtilis spores; Chlorhexidine 0.020% 60 min): 5.8 | Log Reduction (Bacillus subtilis spores; Chlorhexidine 0.020% 60 min): 0.4 | Total Viability (CFU) (Bacillus subtilis spores; Chlorhexidine 0.020% 60 min): 672000 CFU | Log 10 (CFU + 1) Survivors (Bacillus subtilis spores; Chlorhexidine 0.200% 60 min): 4.3 | Log Reduction (Bacillus subtilis spores; Chlorhexidine 0.200% 60 min): 2.0 | Total Viability (CFU) (Bacillus subtilis spores; Chlorhexidine 0.200% 60 min): 20020 CFU | Log 10 (CFU + 1) Survivors (Bacillus subtilis spores; Chlorhexidine 2% 60 min): 5.0 | Log Reduction (Bacillus subtilis spores; Chlorhexidine 2% 60 min): 1.3 | Total Viability (CFU) (Bacillus subtilis spores; Chlorhexidine 2% 60 min): 102200 CFU | Log 10 (CFU + 1) Survivors (Bacillus subtilis spores; Chlorhexidine 20% 60 min): 5.5 | Log Reduction (Bacillus subtilis spores; Chlorhexidine 20% 60 min): 0.7 | Total Viability (CFU) (Bacillus subtilis spores; Chlorhexidine 20% 60 min): 350000 CFU | prevention of catheter-related infections [1]: superior | Log 10 (CFU + 1) Survivors (Staphylococcus aureus; Chlorhexidine 0.020% 15 min): 0.0 | Log Reduction (Staphylococcus aureus; Chlorhexidine 0.020% 15 min): 6.2 | Total Viability (CFU) (Staphylococcus aureus; Chlorhexidine 0.020% 15 min): 0 CFU | Log 10 (CFU + 1) Survivors (Staphylococcus aureus; Chlorhexidine 0.200% 15 min): 0.0 | Log Reduction (Staphylococcus aureus; Chlorhexidine 0.200% 15 min): 6.2 | Total Viability (CFU) (Staphylococcus aureus; Chlorhexidine 0.200% 15 min): 0 CFU | Log 10 (CFU + 1) Survivors (Staphylococcus aureus; Chlorhexidine 2% 15 min): 0.0 | Log Reduction (Staphylococcus aureus; Chlorhexidine 2% 15 min): 6.2 | Total Viability (CFU) (Staphylococcus aureus; Chlorhexidine 2% 15 min): 0 CFU | Log 10 (CFU + 1) Survivors (Staphylococcus aureus; Chlorhexidine 20% 15 min): 0.0 | Log Reduction (Staphylococcus aureus; Chlorhexidine 20% 15 min): 6.2 | Total Viability (CFU) (Staphylococcus aureus; Chlorhexidine 20% 15 min): 0 CFU
